Several values for one entry are separate records, joined by “and”; a condition that tells them apart may be missing. Identical values can stand only once.
How the values were obtained:
[1] = cited from earlier work
[2] = Autofluorescence emission scan (Ensight multimodal plate reader); format: physicochemical; conditions: 100 mM
Method: (§1) Botanically derived purified CBDV (BOT) and Synthetic CBDV (SYN) were tested in duplicates at five concentrations of 0.1 mM, 0.5 mM, 1 mM, 50 mM and 100 mM in 100% DMSO or 100% Ethanol.
(§2) 200 μL of each sample or buffer were added into microplates in duplicate. Measurement has been performed on the Ensight multimodal plate reader (Perkin Elmer).
In order to confirm the emission peak of the test substance, an emission scan was performed using the excitation peaks identified after the excitation scan. The […] was set to start for botanically derived purified CBDV and synthetic CBDV at 20 nm above the tentative excitation values using a step increment of 2 nm. Wavelengths up to 800 nm were scanned for emission.
The wavelength giving the maximum emission for the samples was defined as the optimal emission wavelength for the chosen excitation wavelength.

[3] = test system: sub-chronic PCP-induced deficit in novel object recognition; experiment: Novel object recognition (NOR) test after sub-chronic PCP, animal model of schizophrenia; format: in vivo, rat (female hooded-Lister)
Excerpt: The effect of PCP in the novel object recognition (NOR) test is a model of visual recognition memory deficits similar to those observed in schizophrenia. The atypical antipsychotics, clozapine and risperidone, can attenuate the deficit. The study was designed to determine if botanically derived purified CBDV and/or synthetic CBDV could attenuate the deficits in novel object recognition caused by administration of PCP.
Female hooded-Lister rats were used for this experiment. Rats were housed in groups of 5 under standard laboratory conditions under a 12 hr light: dark cycle, with lights on at 0700 hr. Testing was carried out in the light phase. Rats were randomly assigned to two treatment groups and treated with vehicle, n=15 (distilled water, i.p.) or Phencyclidine hydrochloride (PCP), n=75 (2 mg/kg, i.p. twice daily for 7-days). PCP was dissolved in distilled water. This was followed by a 7-day wash out period before the rats were tested following acute treatment with […], risperidone or vehicle. […]
Following the 3 minute habituation period, the rats are given two 3 minute trials (T1 and T2) which were separated by a 1 minute inter-trial interval in the home cage during which the objects were changed. Behavior in all trials was recorded on video for subsequent blind scoring. […]
The exploration time(s) of each object (A, B, familiar and novel) in each trial were recorded using two stopwatches and the following factors were calculated: total exploration time of both objects in the acquisition trial, total exploration time of both objects in the retention trial. Habituation of exploratory activity included the exploration time, as measured by the number of lines crossed, for both trials.
All data were assessed for normality using D'Agostino and Pearson normality test. Data non-normally distributed were analyzed using Kruskal-Wallis followed by planned comparisons with Dunn's correction. Normally distributed data were analyzed using one-way ANOVA followed by planned comparisons with Sidak's correction. […]

[4] = Autofluorescence excitation scan (Ensight multimodal plate reader); format: physicochemical; conditions: 100 mM; for excitation peak point (first, lower-wavelength peak) / excitation peak point (second, higher-wavelength peak) / fluorescence intensity at first excitation peak / fluorescence intensity at second excitation peak: ethanol as vehicle
Method: as §1, §2
An excitation scan was used to detect the excitation peak for each test substance. The excitation scan was set from 230 to 380 nm and below the emission wavelength of 400 nm. The excitation scan was also set from 230 to 420 nm and below the emission wavelength of 440 nm. In both cases, a step increment of 2 nm was used for these scans.
Based on these analyses, the peaks of excitation wavelengths for the two tentative emission wavelengths were determined and used to identify the optimal excitation wavelength/s.

[5] = DMSO as vehicle, excitation wavelength set at 328 nm
[6] = DMSO as vehicle, excitation wavelength set at 334 nm
[7] = DMSO as vehicle, excitation wavelength set at 344 nm
[8] = ethanol as vehicle, excitation wavelength set at 326 nm
[9] = ethanol as vehicle, excitation wavelength set at 340 nm
[10] = emission wavelength set at 400 nm
[11] = emission wavelength set at 440 nm

Structure (SMILES): C=C(C)[C@@H]1CCC(C)=C[C@H]1c1c(O)cc(CCC)cc1O [CBDV, 2-[(1R,6R)-3-Methyl-6-(1-methylethenyl)-2-cyclohexen-1-yl]-5-propyl-1,3-benzenediol]
- solubility in organic solvents ([1]; organic solvents): soluble
- solubility in water ([1]; water): insoluble

Structure (SMILES): C=C(C)[C@@H]1CCC(C)=C[C@H]1c1c(O)cc(CCC)cc1O [synthetic CBDV, Cannabidivarin]
- emission peak point [2, 5]: 394 nm
- fluorescence intensity at emission peak [2, 5]: 264597 au
- emission peak point [2, 6]: 392 nm
- fluorescence intensity at emission peak [2, 6]: 201880 au
- emission peak point [2, 7]: 390 nm
- fluorescence intensity at emission peak [2, 7]: 158071 au
- emission peak point [2, 8]: 390 nm
- fluorescence intensity at emission peak [2, 8]: 67541 au
- emission peak wavelength [2, 9]: 378 nm
- fluorescence intensity at peak [2, 9]: 29009 au
- human daily amount of CBDV corresponding to the rat MED ([3]; 70 kg human, rat dose x 0.16 x 70): 224 mg/day
- human equivalent dose of the rat MED ([3]; rat dose multiplied by 0.16 (FDA dose conversion guidance)): 3.2 mg/kg/day
- minimal effective dose (MED) attenuating sub-chronic PCP-induced deficit in novel object recognition ([3]; rats, 2-20 mg/kg i.p., 60 min ppt, n=8-10 per group): 20 mg/kg
- excitation peak point (first, lower-wavelength peak) [4, 10]: 282 nm
- excitation peak point (second, higher-wavelength peak) [4, 10]: 324 nm
- fluorescence intensity at first excitation peak [4, 10]: 139797 au
- fluorescence intensity at second excitation peak [4, 10]: 123100 au
- excitation peak point (first, lower-wavelength peak) [4, 11]: 280 nm
- excitation peak point (second, higher-wavelength peak) [4, 11]: 326 nm
- fluorescence intensity at first excitation peak [4, 11]: 39433 au
- fluorescence intensity at second excitation peak [4, 11]: 41443 au
- excitation peak points ([4]; pure DMSO as vehicle, emission wavelength set at 400 nm): 282 nm and 326 nm
